Test results taken from patent US7541353B2, “Compounds for the treatment of hepatitis C” (Bristol-Myers Squibb Company, priority 2007, dated 2009).

Legend:
HCV NS5B = molecular target: T1, HCV NS5B (Hepatitis C virus genotype 1b, UniProt Q9WMX2); experiment: Modified HCV NS5B RdRp enzyme assay (preincubation protocol); assay type: biochemical
T1 construct: The cDNA encoding the NS5B protein of HCV, genotype 1b; made in house; host or cells: E. coli BL21(DE3)
Method: HCV NS5B RdRp cloning, expression, and purification. The cDNA encoding the NS5B protein of HCV, genotype 1b, was cloned into the pET21a expression vector. The protein was expressed with an 18 amino acid C-terminal truncation to enhance the solubility. The E. coli competent cell line BL21(DE3) was used for expression of the protein. Cultures were grown at 37° C. for ˜4 hours until the cultures reached an optical density of 2.0 at 600 nm. The cultures were cooled to 20° C. and induced with 1 mM IPTG. Fresh ampicillin was added to a final concentration of 50 μg/ml and the cells were grown overnight at 20° C.
Cell pellets (3L) were lysed for purification to yield 15-24 mgs of purified NS5B. The lysis buffer consisted of 20 mM Tris-HCl, pH 7.4, 500 mM NaCl, 0.5% triton X-100, 1 mM DTT, 1 mM EDTA, 20% glycerol, 0.5 mg/ml lysozyme, 10 mM MgCl2, 15 ug/ml deoxyribonuclease I, and Complete™ protease inhibitor tablets (Roche). After addition of the lysis buffer, frozen cell pellets were resuspended using a tissue homogenizer. To reduce the viscosity of the sample, aliquots of the lysate were sonicated on ice using a microtip attached to a Branson sonicator. The sonicated lysate was centrifuged at 100,000×g for 1 hr at 4° C. and filtered through a 0.2 μm filter unit (Corning).
The protein was purified using two sequential chromatography steps: Heparin sepharose CL-6B and polyU sepharose 4B (Pharmacia). The chromatography buffers were identical to the lysis buffer but contained no lysozyme, deoxyribonuclease I, MgCl2 or protease inhibitor and the NaCl concentration of the buffer was adjusted according to the requirements for charging the protein onto the column. Each column was eluted with a NaCl gradient which varied in length from 5-50 column volumes depending on the column type. After the final chromatography step, the resulting purity of the enzyme is >90% based on SDS-PAGE analysis. The enzyme was aliquoted and stored at −80° C.
Standard HCV NS5B RdRp enzyme assay. HCV RdRp genotype 1b assays were run in a final volume of 60 μl in 96 well plates (Corning 3600). The assay buffer is composed of 20 mM Hepes, pH 7.5, 2.5 mM KCl, 2.5 mM MgCl2, 1 mM DTT, 1.6 U RNAse inhibitor (Promega N2515), 0.01 mg/ml BSA (Sigma B6917), and 2% glycerol. All compounds were serially diluted (3-fold) in DMSO and diluted further in water such that the final concentration of DMSO in the assay was 2%. HCV RdRp genotype 1b enzyme was used at a final concentration of 28 nM. A polyA template was used at 6 nM, and a biotinylated oligo-dT12 primer was used at 180 nM final concentration. Template was obtained commercially (Amersham 27-4110). Biotinylated primer was prepared by Sigma Genosys. 3H-UTP was used at 0.6 μCi (0.29 μM total UTP). Reactions were initiated by the addition of enzyme, incubated at 30° C. for 60 min, and stopped by adding 25 μl of 50 mM EDTA containing SPA beads (4 μg/μl, Amersham RPNQ 0007). Plates were read on a Packard Top Count NXT after >1 hr incubation at room temperature.
Modified HCV NS5B RdRp enzyme assay. A modified enzyme assay was performed essentially as described for the standard enzyme assay except for the following: The biotinylated oligo dT12 primer was precaptured on streptavidin-coated SPA beads by mixing primer and beads in assay buffer and incubating at room temperature for one hour. Unbound primer was removed after centrifugation. The primer-bound beads were resuspended in 20 mM Hepes buffer, pH 7.5 and used in the assay at final concentrations of 20 nM primer and 0.67 μg/μl beads. Order of addition in the assay: enzyme (1.75 nM) was added to diluted compound followed by the addition of a mixture of template (0.36 nM), 3H-UTP (0.6 μCi, 0.29 μM), and primer-bound beads, to initiate the reaction; concentrations given are final. Reactions were allowed to proceed for 4 hours at 30° C.
IC50 values for compounds were determined using seven different [I]. […]

HCV replicon cells = experiment: HCV replicon FRET assay; assay type: cell-based; details: Hepatitis C virus
Method: FRET Assay Preparation. The HCV FRET screening assay was performed in 96-well cell culture plates. The FRET peptide (Anaspec, Inc.) (Taliani et al., Anal. Biochem. 1996, 240, 60-67) contains a fluorescence donor, EDANS, near one end of the peptide and an acceptor, DABCYL, near the other end. The fluorescence of the peptide is quenched by […] resonance energy transfer (RET) between the donor and the acceptor, but as the NS3 protease cleaves the peptide the products are released from RET quenching and the fluorescence of the donor becomes apparent. The assay reagent was made as follows: 5× cell Luciferase cell culture lysis reagent from Promega (#E153A) diluted to 1× with dH2O, NaCl added to 150 mM final, the FRET peptide diluted to 20 μM final from a 2 mM stock.
To prepare plates, HCV replicon cells, with or without a Renilla luciferase reporter gene, were trypsinized and plated in a 96-well plate with titrated test compounds added in columns 3 through 12; columns 1 and 2 contained a control compound (HCV control inhibitor), and the bottom row contained cells with DMSO only. The plates were then placed in a CO2 incubator at 37° C.
Assays. Subsequent to addition of the test compounds described above (FRET Assay Preparation), at various times the plate was removed and Alamar blue solution (Trek Diagnostics, #00-100) was added to measure cellular toxicity. After reading in a Cytoflour 4000 instrument (PE Biosystems), plates were rinsed with PBS and then used for FRET assay by the addition of 30 ul of the FRET peptide assay reagent described above (FRET Assay Preparation) per well. The plate was then placed into the Cytoflour 4000 instrument which had been set to 340 excite/490 emission, automatic mode for up to 20 cycles and the plate read in a kinetic mode. Typically, the signal to noise using an endpoint analysis after the reads was at least three-fold. Alternatively, after Alamar blue reading, plates were rinsed with PBS, then used for luciferase assay using the Promega Dual-Glo Luciferase Assay System or the Promega EnduRen Live Cell Substrate assay.
Compound analysis was performed by quantification of the relative HCV replicon inhibition and the relative cytotoxicity values. To calculate cytoxicity values, the average Alamar Blue fluorescence signals from the control wells were set as 100% non-toxic. The individual signals in each of the compound test wells were then divided by the average control signal and multiplied by 100% to determine […]. To calculate the HCV replicon inhibition values, an average background value was obtained from the two wells containing the highest amount of HCV control inhibitor at the end of the assay period. These numbers were similar to those obtained from naïve Huh-7 cells. The background numbers were then subtracted from the average signal obtained from the control wells and this number was used as 100% activity. The individual signals in each of the compound test wells were then divided by the averaged control values after background subtraction and multiplied by 100% to determine percent activity. EC50 values were calculated as the concentration which caused a 50% reduction in FRET or luciferase activity. The two numbers generated for the compound plate, percent cytoxicity and percent activity, were used to determine compounds of interest for further analysis.

T1 sequence (Q9WMX2 2420-2992): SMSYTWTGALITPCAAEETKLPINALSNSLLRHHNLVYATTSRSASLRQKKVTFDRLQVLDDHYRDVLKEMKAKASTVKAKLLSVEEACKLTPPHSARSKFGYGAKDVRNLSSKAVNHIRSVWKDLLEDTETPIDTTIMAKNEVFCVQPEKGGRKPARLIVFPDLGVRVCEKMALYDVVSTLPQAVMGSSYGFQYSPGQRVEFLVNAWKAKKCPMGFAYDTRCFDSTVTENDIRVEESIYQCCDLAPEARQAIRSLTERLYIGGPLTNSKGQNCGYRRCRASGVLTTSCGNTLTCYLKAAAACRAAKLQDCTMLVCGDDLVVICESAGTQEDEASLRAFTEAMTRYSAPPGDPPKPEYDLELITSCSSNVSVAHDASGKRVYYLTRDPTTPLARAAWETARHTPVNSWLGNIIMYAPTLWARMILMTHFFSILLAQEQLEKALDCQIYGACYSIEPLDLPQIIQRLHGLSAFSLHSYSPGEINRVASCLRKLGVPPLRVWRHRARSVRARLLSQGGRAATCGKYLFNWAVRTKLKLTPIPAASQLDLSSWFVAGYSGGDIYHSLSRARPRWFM

Structure (SMILES) | IC50 (HCV NS5B) [nM] | EC50 (HCV replicon cells) [nM]
COc1ccc2c(c1)C1CC1(C(=O)N1C3CCC1COC3)Cn1c-2c(C2CCCCC2)c2ccc(C(=O)NS(=O)(=O)N(C)C)cc21 (stereo not shown) | 4.58 to 500 | 4.58 to 500
COc1ccc2c(c1)C1CC1(C(=O)N1C3CCC1CC(O)C3)Cn1c-2c(C2CCCCC2)c2ccc(C(=O)NS(=O)(=O)N(C)C)cc21 (stereo not shown) | 4.58 to 500 | 4.58 to 500
COc1ccc2c(c1)C1CC1(C(=O)N1C3CCC1CC(N1CCCCC1)C3)Cn1c-2c(C2CCCCC2)c2ccc(C(=O)NS(=O)(=O)N(C)C)cc21 (stereo not shown) | 4.58 to 500 | 4.58 to 500
COc1ccc2c(c1)C1CC1(C(=O)N1C3CCC1CC(C)(O)C3)Cn1c-2c(C2CCCCC2)c2ccc(C(=O)NS(=O)(=O)N(C)C)cc21 (stereo not shown) | 4.58 to 500 | 4.58 to 500
COc1ccc2c(c1)C1CC1(C(=O)N1C3CCC1CC(N(C)C)C3)Cn1c-2c(C2CCCCC2)c2ccc(C(=O)NS(=O)(=O)N(C)C)cc21 (stereo not shown) | 4.58 to 500 | 4.58 to 500
COc1ccc2c(c1)C1CC1(C(=O)N1C3CCC1CC(N(C)Cc1ccccc1)C3)Cn1c-2c(C2CCCCC2)c2ccc(C(=O)NS(=O)(=O)N(C)C)cc21 (stereo not shown) | 4.58 to 500 | 4.58 to 500
COc1ccc2c(c1)C1CC1(C(=O)N1C3CCC1CC(N(CCN(C)C)Cc1ccccc1)C3)Cn1c-2c(C2CCCCC2)c2ccc(C(=O)NS(=O)(=O)N(C)C)cc21 (stereo not shown) | 4.58 to 500 | 4.58 to 500
COc1ccc2c(c1)C1CC1(C(=O)N1C3CCC1CC(NCc1ccccc1)C3)Cn1c-2c(C2CCCCC2)c2ccc(C(=O)NS(=O)(=O)N(C)C)cc21 (stereo not shown) | 4.58 to 500 | 4.58 to 500
CCNC1CC2CCC(C1)N2C(=O)C12CC1c1cc(OC)ccc1-c1c(C3CCCCC3)c3ccc(C(=O)NS(=O)(=O)N(C)C)cc3n1C2 (stereo not shown) | 4.58 to 500 | 4.58 to 500
COc1ccc2c(c1)C1CC1(C(=O)N1C3CCC1CC(NCCN(C)C)C3)Cn1c-2c(C2CCCCC2)c2ccc(C(=O)NS(=O)(=O)N(C)C)cc21 (stereo not shown) | 4.58 to 500 | 4.58 to 500
COc1ccc2c(c1)C1CC1(C(=O)N1C3CCC1CC3)Cn1c-2c(C2CCCCC2)c2ccc(C(=O)NS(=O)(=O)N3CCN(C)CC3)cc21 (stereo not shown) | 4.58 to 500 | 4.58 to 500
COc1ccc2c(c1)C1CC1(C(=O)N1C3CCC1CC(O)(C(C)(C)C)C3)Cn1c-2c(C2CCCCC2)c2ccc(C(=O)NS(=O)(=O)N(C)C)cc21 (stereo not shown) | 4.58 to 500 | 4.58 to 500
COc1ccc2c(c1)C1CC1(C(=O)N1C3CCC1CC(N(CCN(C)C)Cc1ccccc1)C3)Cn1c-2c(C2CCCCC2)c2ccc(C(=O)NS(C)(=O)=O)cc21 (stereo not shown) | 4.58 to 500 | 4.58 to 500
COc1ccc2c(c1)C1CC1(C(=O)N1C3CCC1CC(C)(O)C3)Cn1c-2c(C2CCCCC2)c2ccc(C(=O)NS(=O)(=O)C(C)C)cc21 (stereo not shown) | 4.58 to 500 | 4.58 to 500
COc1ccc2c(c1)C1CC1(C(=O)N1C3CCC1CC(C)(O)C3)Cn1c-2c(C2CCCCC2)c2ccc(C(=O)NS(=O)(=O)N3CCC3)cc21 (stereo not shown) | 4.58 to 500 | 4.58 to 500
COc1ccc2c(c1)C1CC1(C(=O)N1C3CCC1CC(=O)C3)Cn1c-2c(C2CCCCC2)c2ccc(C(=O)NS(=O)(=O)C3CC3)cc21 (stereo not shown) | 4.58 to 500 | –
COc1ccc2c(c1)C1CC1(C(=O)N1C3CCC[C@@H]1COC3)Cn1c-2c(C2CCCCC2)c2ccc(C(=O)NS(=O)(=O)C(C)C)cc21 (stereo partly shown) | 4.58 to 500 | 4.58 to 500
COc1ccc2c(c1)C1CC1(C(=O)N1C3CCC[C@@H]1COC3)Cn1c-2c(C2CCCCC2)c2ccc(C(=O)NS(=O)(=O)C3CCCC3)cc21 (stereo partly shown) | 4.58 to 500 | 4.58 to 500
COc1ccc2c(c1)C1CC1(C(=O)N1C3COCC1COC3)Cn1c-2c(C2CCCCC2)c2ccc(C(=O)NS(=O)(=O)C3CCCCC3)cc21 (stereo not shown) | 4.58 to 500 | 4.58 to 500
COc1ccc2c(c1)C1CC1(C(=O)N1C3CCC[C@@H]1COC3)Cn1c-2c(C2CCCCC2)c2ccc(C(=O)NS(=O)(=O)CC(F)(F)F)cc21 (stereo partly shown) | 4.58 to 500 | 4.58 to 500
COc1ccc2c(c1)C1CC1(C(=O)N1C3COCC1COC3)Cn1c-2c(C2CCCCC2)c2ccc(C(=O)NS(=O)(=O)CCC(F)(F)F)cc21 (stereo not shown) | 4.58 to 500 | 4.58 to 500
COc1ccc2c(c1)C1CC1(C(=O)N1C3COCC1COC3)Cn1c-2c(C2CCCCC2)c2ccc(C(=O)NS(=O)(=O)C3CCCC3)cc21 (stereo not shown) | 4.58 to 500 | 4.58 to 500
COc1ccc2c(c1)C1CC1(C(=O)N1C3COCC1COC3)Cn1c-2c(C2CCCCC2)c2ccc(C(=O)NS(=O)(=O)CC(F)(F)F)cc21 (stereo not shown) | 4.58 to 500 | 4.58 to 500
COc1ccc2c(c1)C1CC1(C(=O)N1C3CCCC1COC3)Cn1c-2c(C2CCCCC2)c2ccc(C(=O)NS(=O)(=O)CCC(F)(F)F)cc21 (stereo not shown) | 4.58 to 500 | 4.58 to 500
COc1ccc2c(c1)C1CC1(C(=O)N1C3CCCC1COC3)Cn1c-2c(C2CCCCC2)c2ccc(C(=O)NS(=O)(=O)C3CCC3)cc21 (stereo not shown) | 4.58 to 500 | 4.58 to 500
